Tests used:
Assay in all cases: combination Emax (second highest fraction inhibited in the dose matrix, 72 h); higher = more inhibition; extreme values may be limits of the assay
[1] = test system: YT (Other Blood Carcinomas)
Procedure, shortened: (§1)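 Bliss excess equals the observed combination effect minus the expected value EA + EB − EA·EB, where EA and EB are the effects of each agent alone. Combination Emax is the second-highest inhibition within the matrix. Inhibition was scaled from CellTiter-Glo 2.0 luminescence, with 0 set by vehicle wells and 1 by blank wells, after 72 hours of two-drug dosing of cells plated in 1536-well plates.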

[2] = test system: HuO9 (Osteosarcoma)
Procedure, shortened: as §1

[3] = test system: SNU-61 (Colorectal Carcinoma)
Procedure, shortened: as §1

[4] = test system: HCT-116 (Colorectal Carcinoma)
Procedure, shortened: as §1

[5] = test system: KG-1 (Acute Myeloid Leukemia)
Procedure, shortened: as §1

[6] = test system: NOMO-1 (Acute Myeloid Leukemia)
Procedure, shortened: as §1

[7] = test system: HOP-92 (Non-Small Cell Lung Carcinoma)
Procedure, shortened: as §1

[8] = test system: PA-TU-8902 (Pancreatic Carcinoma)
Procedure, shortened: as §1

[9] = test system: GDM-1 (Acute Myeloid Leukemia)
Procedure, shortened: as §1

[10] = test system: Saos-2 (Osteosarcoma)
Procedure, shortened: as §1

[11] = test system: SKN-3 (Head and Neck Carcinoma)
Procedure, shortened: as §1

[12] = test system: EFM-192A (Breast Carcinoma)
Procedure, shortened: as §1

[13] = test system: CAL-39 (Other Solid Carcinomas)
Procedure, shortened: as §1

[14] = test system: NCI-H1688 (Small Cell Lung Carcinoma)
Procedure, shortened: as §1

[15] = test system: D-392MG (Glioblastoma)
Procedure, shortened: as §1

[16] = test system: HLE (Hepatocellular Carcinoma)
Procedure, shortened: as §1

[17] = test system: P31-FUJ (Acute Myeloid Leukemia)
Procedure, shortened: as §1

[18] = test system: RCC10RGB (Kidney Carcinoma)
Procedure, shortened: as §1

[19] = test system: BICR78 (Oral Cavity Carcinoma)
Procedure, shortened: as §1

[20] = test system: U-118-MG (Low Grade Glioma)
Procedure, shortened: as §1

| Structure (SMILES) | combination Emax [1] | combination Emax [2] | combination Emax [3] | combination Emax [4] | combination Emax [5] | combination Emax [6] | combination Emax [7] | combination Emax [8] | combination Emax [9] | combination Emax [10] | combination Emax [11] | combination Emax [12] | combination Emax [13] | combination Emax [14] | combination Emax [15] | combination Emax [16] | combination Emax [17] | combination Emax [18] | combination Emax [19] | combination Emax [20] |
| --- | --- | --- | --- | --- | --- | --- | --- | --- | --- | --- | --- | --- | --- | --- | --- | --- | --- | --- | --- | --- |
| Cc1cc2ncnn2cc1Nc1ncc2c(n1)n(C1CCOCC1)c(=O)n2C [AZD7648] + C=CCn1c(=O)c2cnc(Nc3ccc(N4CCN(C)CC4)cc3)nc2n1-c1cccc(C(C)(C)O)n1 [AZD1775] (first compound max 10 µM, partner max 1 µM) | 0.89 | 0.724 | 0.401 | 0.633 | 0.452 | 0.961 | 0.613 | 0.348 | 0.894 | 0.582 | 0.283 | 0.455 | 0.462 | 0.586 | 0.397 | 0.66 | 0.987 | 0.552 | 0.375 | 0.435 |
| Cc1cc2ncnn2cc1Nc1ncc2c(n1)n(C1CCOCC1)c(=O)n2C [AZD7648] + CCN(CCO)CCCOc1ccc2c(Nc3cc(CC(=O)Nc4cccc(F)c4)[nH]n3)ncnc2c1 [AZD2811] (first compound max 10 µM, 7x7, partner max 1 µM) | 0.624 | 0.369 | 0.254 | 0.528 | 0.386 | 0.606 | 0.41 | 0.309 | 0.859 | 0.45 | 0.128 | 0.345 | 0.433 | 0.201 | 0.329 | 0.433 | 0.957 | 0.264 | 0.354 | 0.317 |
| Cc1cc2ncnn2cc1Nc1ncc2c(n1)n(C1CCOCC1)c(=O)n2C [AZD7648] + CN(C)CCCOc1ccc(-c2ccc3ncc4c(c3c2)n(C2CCOCC2)c(=O)n4C)cn1 [AZD0156] (first compound max 10 µM, 7x7, partner max 1 µM) | 0.705 | 0.369 | 0.172 | 0.317 | 0.323 | 0.461 | 0.231 | 0.227 | 0.657 | 0.171 | 0.111 | 0.374 | 0.322 | 0.147 | 0.301 | 0.31 | 0.566 | 0.3 | 0.208 | 0.277 |
| Cc1cc2ncnn2cc1Nc1ncc2c(n1)n(C1CCOCC1)c(=O)n2C [AZD7648] + C[C@@H]1COCCN1C2=NC(=NC(=C2)C3(CC3)[S@](=N)(=O)C)C4=C5C=CNC5=NC=C4 [AZD6738] (first compound max 10 µM, 7x7, partner max 10 µM) | 0.833 | 0.756 | 0.326 | 0.723 | 0.67 | 0.961 | 0.493 | 0.24 | 0.789 | 0.561 | 0.185 | 0.292 | 0.485 | 0.251 | 0.52 | 0.721 | 0.967 | 0.316 | 0.598 | 0.435 |
| Cc1cc2ncnn2cc1Nc1ncc2c(n1)n(C1CCOCC1)c(=O)n2C [AZD7648] + O=C(c1cc(Cc2n[nH]c(=O)c3ccccc23)ccc1F)N1CCN(C(=O)C2CC2)CC1 [Olaparib] (first compound max 10 µM, 7x7, partner max 10 µM) | 0.575 | 0.441 | 0.0443 | 0.234 | 0.131 | 0.365 | 0.292 | 0.112 | 0.628 | 0.14 | 0.0538 | 0.278 | 0.174 | 0.135 | 0.144 | 0.252 | 0.34 | 0.18 | 0.182 | 0.394 |
| NC1(C(=O)N[C@@H](CCO)c2ccc(Cl)cc2)CCN(c2ncnc3[nH]ccc23)CC1 [Capivasertib] + CC(=O)c1c(C)c2cnc(Nc3ccc(N4CCNCC4)cn3)nc2n(C2CCCC2)c1=O [Palbociclib] (first compound max 10 µM, 7x7, partner max 10 µM) | 0.68 | 0.541 | 0.168 | 0.782 | 0.398 | 0.517 | 0.466 | 0.409 | 0.623 | 0.407 | 0.474 | 0.432 | 0.672 | 0.224 | 0.436 | 0.164 | 0.571 | 0.54 | 0.424 | 0.676 |
| NC1(C(=O)N[C@@H](CCO)c2ccc(Cl)cc2)CCN(c2ncnc3[nH]ccc23)CC1 [Capivasertib] + CC(C)n1c(=O)n(C)c2cnc3cc(F)c(-c4ccc(OCCCN5CCCCC5)nc4)cc3c21 [AZD1390] (first compound max 10 µM, 7x7, partner max 0.3 µM) | 0.336 | 0.509 | 0.146 | 0.373 | 0.241 | 0.429 | 0.376 | 0.278 | 0.401 | 0.473 | 0.2 | 0.402 | 0.457 | 0.296 | 0.228 | 0.194 | 0.645 | 0.2 | 0.368 | 0.47 |
| NC1(C(=O)N[C@@H](CCO)c2ccc(Cl)cc2)CCN(c2ncnc3[nH]ccc23)CC1 [Capivasertib] + CCN(CCO)CCCOc1ccc2c(Nc3cc(CC(=O)Nc4cccc(F)c4)[nH]n3)ncnc2c1 [AZD2811] (first compound max 10 µM, 7x7, partner max 1 µM) | 0.456 | 0.464 | 0.242 | 0.587 | 0.458 | 0.735 | 0.458 | 0.348 | 0.837 | 0.586 | 0.23 | 0.449 | 0.55 | 0.309 | 0.332 | 0.33 | 0.952 | 0.292 | 0.392 | 0.603 |
| NC1(C(=O)N[C@@H](CCO)c2ccc(Cl)cc2)CCN(c2ncnc3[nH]ccc23)CC1 [Capivasertib] + COc1nnc2ccc(N3CCC(c4ccc(OCCN5CCN(C)C(=O)[C@H]5C)cc4)CC3)nn12 [AZD5153] (first compound max 10 µM, 7x7, partner max 1 µM) | 0.792 | 0.841 | 0.303 | 0.813 | 0.852 | 1 | 0.405 | 0.326 | 0.79 | 0.554 | 0.581 | 0.504 | 0.787 | 0.406 | 0.512 | 0.389 | 1 | 0.518 | 0.636 | 0.658 |
| NC1(C(=O)N[C@@H](CCO)c2ccc(Cl)cc2)CCN(c2ncnc3[nH]ccc23)CC1 [Capivasertib] + C[C@@H]1COCCN1C2=NC(=NC(=C2)C3(CC3)[S@](=N)(=O)C)C4=C5C=CNC5=NC=C4 [AZD6738] (first compound max 10 µM, 7x7, partner max 10 µM) | 0.838 | 0.79 | 0.309 | 0.765 | 0.739 | 0.968 | 0.541 | 0.544 | 0.734 | 0.586 | 0.566 | 0.581 | 0.653 | 0.445 | 0.464 | 0.605 | 0.971 | 0.469 | 0.628 | 0.685 |
| NC1(C(=O)N[C@@H](CCO)c2ccc(Cl)cc2)CCN(c2ncnc3[nH]ccc23)CC1 [Capivasertib] + Cn1cnc2c(F)c(Nc3ccc(Br)cc3Cl)c(C(=O)NOCCO)cc21 [Selumetinib] (first compound max 10 µM, 7x7, partner max 10 µM) | 0.446 | 0.509 | 0.46 | 0.877 | 0.37 | 0.948 | 0.685 | 0.557 | 0.73 | 0.46 | 0.426 | 0.436 | 0.762 | 0.372 | 0.484 | 0.236 | 0.931 | 0.483 | 0.548 | 0.663 |
| Cc1nc(Nc2ncc(C(=O)Nc3c(C)cccc3Cl)s2)cc(N2CCN(CCO)CC2)n1 [Dasatinib] + CC(=O)Nc1cccc(-n2c(=O)n(C3CC3)c(=O)c3c(Nc4ccc(I)cc4F)n(C)c(=O)c(C)c32)c1 [Trametinib] (first compound max 2 µM, 7x7, partner max 1 µM) | 0.318 | 0.541 | 0.626 | 0.979 | 0.419 | 0.861 | 0.928 | 0.589 | 0.76 | 0.335 | 0.575 | 0.122 | 0.944 | 0.249 | 0.627 | 0.414 | 0.65 | 0.667 | 0.435 | 0.557 |
| COc1cccc2c1C(=O)c1c(O)c3c(c(O)c1C2=O)C[C@@](O)(C(=O)CO)C[C@@H]3O[C@H]1C[C@H](N)[C@H](O)[C@H](C)O1 [Doxorubicin] + Cc1cc2ncnn2cc1Nc1ncc2c(n1)n(C1CCOCC1)c(=O)n2C [AZD7648] (first compound max 1 µM, 7x7, partner max 10 µM) | 0.862 | 0.897 | 0.321 | 0.918 | 0.365 | 0.966 | 0.547 | 0.372 | 0.975 | 0.862 | 0.32 | 0.368 | 0.654 | 0.732 | 0.586 | 0.812 | 0.995 | 0.29 | 0.748 | 0.715 |
